Values joined by “and” are separate entries in the source; they are usually repeats but may differ in a detail not shown here. Identical values can stand only once.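 These data come from cells grown in 96-well plates and exposed to compound for 48 hours at five concentrations. GI50 = concentration required for 50% inhibition of growth. Definition used: TGI = concentration required for complete inhibition of growth.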
Experiments:
Test in all cases: NCI anticancer screen, dose series, 48 h
[1] = test system: SK-MEL-5 melanoma
[2] = test system: 786-0 renal
[3] = test system: MDA-MB-231 breast
[4] = test system: SNB-75 CNS
[5] = test system: NCI-H522 lung
[6] = test system: EKVX NSCLC
[7] = test system: MCF7 breast
[8] = test system: MOLT-4 leukemia
[9] = test system: OVCAR-8 ovarian
[10] = test system: SN12C renal
[11] = test system: U251 CNS
[12] = test system: NCI-H226 lung

Work on `O=C(/C=C/c1ccc(Cl)c(Cl)c1)CCN1CCN(CCC(=O)/C=C/c2ccc(Cl)c(Cl)c2)CC1` yielded a TGI [1] of 38.2 µM, a TGI [2] of 21 µM and a TGI [3] of 56.7 µM. It also gave a TGI [4] of over 100 µM, a TGI [5] of 31.6 µM and a TGI [6] of over 100 µM. For the same compound, the TGI [7] was 19.4 µM, the TGI [8] was over 100 µM and the TGI [9] was over 100 µM. The TGI [10] was 80.9 µM, the TGI [11] was 49.2 µM and the TGI [12] was 72.8 µM.
`CNC(=O)CNC(=O)CCC(=O)N(C)C` was tested, and the TGI [1] was over 100 µM, the TGI [2] was over 100 µM and the TGI [3] was over 100 µM. The TGI [4] was over 100 µM, the TGI [5] was over 100 µM and the TGI [6] was over 100 µM. It also gave a TGI [7] of over 100 µM, a TGI [8] of over 100 µM and a TGI [9] of over 100 µM. The TGI [10] was over 100 µM, the TGI [11] was over 100 µM and the TGI [12] was over 100 µM.
`O=C(CN=C(CN(c1ccccc1)c1ccccc1)Oc1c([N+](=O)[O-])cc([N+](=O)[O-])cc1[N+](=O)[O-])N1CCNCC1` was tested, and the TGI [1] was over 100 µM, the TGI [2] was over 100 µM and the TGI [3] was over 100 µM. The TGI [4] was over 100 µM, the TGI [5] was over 100 µM and the TGI [6] was over 100 µM. The TGI [7] was over 100 µM, the TGI [8] was over 100 µM and the TGI [9] was over 100 µM. For the same compound, the TGI [10] was over 100 µM, the TGI [11] was over 100 µM and the TGI [12] was over 100 µM.
With `COc1ccccc1/C=C1/Sc2scc(CC(=O)Nc3ccccc3)[n+]2C1=O` the TGI [1] was 36 µM, the TGI [2] was over 100 µM and the TGI [3] was 70.8 µM. For the same compound, the TGI [4] was over 100 µM, the TGI [5] was 73.4 µM and the TGI [6] was over 100 µM. It also gave a TGI [7] of over 100 µM, a TGI [8] of 56.2 µM and a TGI [9] of over 100 µM. For the same compound, the TGI [10] was over 100 µM, the TGI [11] was over 100 µM and the TGI [12] was 69.7 µM.
Work on `O=C(/C(Cl)=C/c1ccccc1)c1ccccc1` yielded a TGI [1] of 12.1 µM, a TGI [2] of 3.37 µM and a TGI [3] of 20.6 µM. The TGI [4] was 26.9 µM, the TGI [5] was 3.76 µM and the TGI [6] was 25.6 µM. For the same compound, the TGI [7] was over 28.4 µM, the TGI [8] was over 21.3 µM and the TGI [9] was 17.1 µM. For the same compound, the TGI [10] was 3.92 µM, the TGI [11] was over 40.1 µM and the TGI [12] was 18.1 µM.
`Cc1cc2nc3c(C(O)CO)nn(-c4ccccc4)c3nc2cc1C` (stereo not drawn) gave a TGI [1] of over 100 µM, a TGI [2] of 42.8 µM and a TGI [3] of 55 µM. For the same compound, the TGI [4] was 51.9 µM, the TGI [5] was 68 µM and the TGI [6] was 63.4 µM. The TGI [7] was 47.3 µM, the TGI [8] was over 100 µM and the TGI [9] was 76.8 µM. It also gave a TGI [10] of 32.4 µM, a TGI [11] of 38.4 µM and a TGI [12] of 98.2 µM.
`CC1C=C(NCC2(CO)CCC2)NC(N)=N1` (stereo not drawn) showed a TGI [1] of over 100 µM, a TGI [2] of over 100 µM and a TGI [3] of over 100 µM. The TGI [4] was over 100 µM, the TGI [5] was over 100 µM and the TGI [6] was over 100 µM. It also gave a TGI [7] of over 100 µM, a TGI [8] of over 100 µM and a TGI [9] of over 100 µM. It also gave a TGI [10] of over 100 µM, a TGI [11] of over 100 µM and a TGI [12] of over 100 µM.
Compound `CC(C)(N=NC(C)(C)C1=NCCN1)C1=NCCN1` has a TGI [1] of over 100 µM, a TGI [2] of over 100 µM and a TGI [3] of over 100 µM. The TGI [4] was over 100 µM, the GI50 [5] was 9.38 µM and 21.4 µM and the TGI [5] was > 100 µM and 60 µM. The TGI [6] was over 100 µM, the TGI [7] was over 100 µM and the TGI [8] was over 100 µM. The TGI [9] was over 100 µM, the TGI [10] was over 100 µM and the TGI [11] was over 100 µM. The TGI [12] was over 100 µM.
With `Cc1ccc(-c2c(C#N)c(S)n(NS(=O)(=O)c3ccccc3)c(=O)c2C#N)cc1` the TGI [1] was 69.4 µM, the TGI [2] was over 100 µM and the TGI [3] was over 100 µM. For the same compound, the TGI [4] was 97.2 µM, the TGI [5] was 52.3 µM and the TGI [6] was over 100 µM. For the same compound, the TGI [7] was over 100 µM, the TGI [8] was 61.1 µM and the TGI [9] was 55.9 µM. For the same compound, the TGI [10] was over 100 µM, the TGI [11] was 83.5 µM and the TGI [12] was 69 µM.
For `O=C(c1ccco1)N1CCN(C(=O)c2ccco2)C1=S`, the TGI [1] was 25.1 µM, the TGI [2] was 12.8 µM and the TGI [3] was 25.4 µM. It also gave a TGI [4] of 26.2 µM, a TGI [5] of 19.4 µM and a TGI [6] of 36.7 µM. It also gave a TGI [7] of 11 µM, a TGI [8] of 24.5 µM and a TGI [9] of 62.5 µM. The TGI [10] was 16.4 µM, the TGI [11] was 24 µM and the TGI [12] was 51.5 µM.
`CC(=O)O/C(=C(/C#N)C(=O)O)C1C(C(=O)O)C(c2ccccc2[N+](=O)[O-])C=C(c2ccco2)N1c1ccncc1` (stereo not drawn) was tested, and the TGI [1] was 7.24 µM, the TGI [2] was 6.62 µM and the TGI [3] was 14.6 µM. For the same compound, the TGI [4] was 20.1 µM, the TGI [5] was 11.3 µM and the TGI [6] was 22.1 µM. It also gave a TGI [7] of 4.38 µM, a TGI [8] of 14.4 µM and a TGI [9] of 14.6 µM. It also gave a TGI [10] of 10.2 µM, a TGI [11] of 4.89 µM and a TGI [12] of 18.9 µM.
For `CCCCCC(/C=N/NC(N)=S)C(O)(C(F)(F)F)C(F)(F)F` (stereo not drawn), the TGI [1] was over 10 µM, the TGI [2] was over 10 µM and the TGI [3] was over 10 µM. It also gave a TGI [4] of over 10 µM, a TGI [5] of over 10 µM and a TGI [6] of over 10 µM. The TGI [7] was over 10 µM, the TGI [8] was over 10 µM and the TGI [9] was over 10 µM. The TGI [10] was over 10 µM, the TGI [11] was over 10 µM and the TGI [12] was over 10 µM.
`COc1cc(/C=C2\CCc3cc(OC)c(OC)cc3C2=O)cc(OC)c1` was tested, and the TGI [1] was 18.1 µM, the TGI [2] was 48.7 µM and the TGI [3] was over 100 µM. It also gave a TGI [4] of over 100 µM, a TGI [5] of over 42.3 µM and a TGI [6] of over 100 µM. For the same compound, the TGI [7] was over 84.3 µM, the TGI [8] was over 100 µM and the TGI [9] was over 52 µM. The TGI [10] was 38.2 µM, the TGI [11] was over 100 µM and the TGI [12] was over 100 µM.
For `CCOC(=O)/C=C/[C@H](O[Si](c1ccccc1)(c1ccccc1)c1ccccc1)C(C)(C)C`, the TGI [1] was over 31.6 µM, the TGI [2] was over 31.6 µM and the TGI [3] was over 31.6 µM. It also gave a TGI [4] of over 31.6 µM, a TGI [5] of over 31.6 µM and a TGI [6] of over 31.6 µM. It also gave a TGI [7] of over 31.6 µM, a TGI [8] of over 31.6 µM and a TGI [9] of over 31.6 µM. The TGI [10] was over 31.6 µM, the TGI [11] was over 31.6 µM and the TGI [12] was over 31.6 µM.
For `O=[N+]([O-])c1cccc2nc3ccccc3c(NCCNCCO)c12`, the TGI [1] was 0.00391 µM, the TGI [2] was 0.0259 µM and 0.121 µM and the TGI [3] was 0.0668 µM and 0.0816 µM. The GI50 [4] was 0.0132 µM, the TGI [4] was 0.0565 µM and 0.0397 µM and the TGI [5] was 0.00272 µM. The GI50 [6] was 0.0306 µM, the TGI [6] was 0.286 µM and 0.181 µM and the TGI [7] was 0.0373 µM and 0.0177 µM. For the same compound, the TGI [8] was 0.0891 µM and 0.0113 µM, the TGI [9] was 0.158 µM and 0.0328 µM and the TGI [10] was 0.173 µM. The TGI [11] was 0.0467 µM and 0.0298 µM and the TGI [12] was 0.0495 µM and 0.0261 µM.
